# Experimental data reported in ChEMBL document CHEMBL1129327, “Diphenylpropionic acids as new AT1 selective angiotensin II antagonists” (J Med Chem, 1996).
# Tests used:
# [1] = biological target: T1, Angiotensin II receptor (AT-1) type-1 (Rattus norvegicus, UniProt P29089+P25095); test: Inhibitory concentration was evaluated by measuring displacement of [3H]AII from rat liver Angiotensin II receptor, type 1
# T1 sequence (P29089 whole entry): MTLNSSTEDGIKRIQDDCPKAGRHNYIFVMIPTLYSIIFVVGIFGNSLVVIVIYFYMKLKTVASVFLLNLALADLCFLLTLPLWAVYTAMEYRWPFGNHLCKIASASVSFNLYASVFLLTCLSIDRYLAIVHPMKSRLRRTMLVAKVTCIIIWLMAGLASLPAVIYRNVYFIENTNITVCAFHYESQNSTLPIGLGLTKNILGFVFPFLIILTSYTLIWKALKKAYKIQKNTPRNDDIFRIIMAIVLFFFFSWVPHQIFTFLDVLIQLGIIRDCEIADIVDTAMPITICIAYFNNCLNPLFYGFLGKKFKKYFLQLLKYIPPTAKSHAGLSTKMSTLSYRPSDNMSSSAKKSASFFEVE
# T1 sequence (P25095 whole entry): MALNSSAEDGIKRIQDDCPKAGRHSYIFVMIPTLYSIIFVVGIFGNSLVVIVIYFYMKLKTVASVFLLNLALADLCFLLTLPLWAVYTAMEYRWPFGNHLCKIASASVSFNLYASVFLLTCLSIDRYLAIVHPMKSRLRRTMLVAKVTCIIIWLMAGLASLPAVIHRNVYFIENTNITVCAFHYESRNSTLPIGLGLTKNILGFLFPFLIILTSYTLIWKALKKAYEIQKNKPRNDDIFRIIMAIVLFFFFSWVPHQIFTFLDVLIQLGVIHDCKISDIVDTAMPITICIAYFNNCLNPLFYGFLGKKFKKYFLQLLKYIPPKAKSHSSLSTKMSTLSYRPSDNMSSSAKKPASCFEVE
# [2] = biological target: Angiotensin II receptor (Rattus norvegicus) (UniProt P29089+P25095+P35351); test: In vivo inhibitory percentage of pressor response induced by exogenous submaximal dose of angiotensin-II (3 ug/kg) administered iv to pithed rats; type: functional, organism-based
# Rattus norvegicus [3] = test: (§1) In vivo inhibitory percentage of pressor response induced by exogenous submaximal dose of angiotensin -II […] administered iv to pithed rats; type: functional
# Rattus norvegicus [4] = test: as §1; type: functional; remark: listed apart in the source
# Oryctolagus cuniculus [5] = species: Oryctolagus cuniculus; test: Antagonism against A-2 induced contraction of aortic rings from rabbit.; type: functional; conditions: Aorta, read-out: pA2 (converted)
# Oryctolagus cuniculus [6] = species: Oryctolagus cuniculus; test: Antagonism against A-2 induced contraction of aortic rings of rabbit.; conditions: read-out: pA2 (converted)
# Angiotensin II receptor (Rattus norvegicus), sequence (P35351 whole entry, looked up, one chain of several): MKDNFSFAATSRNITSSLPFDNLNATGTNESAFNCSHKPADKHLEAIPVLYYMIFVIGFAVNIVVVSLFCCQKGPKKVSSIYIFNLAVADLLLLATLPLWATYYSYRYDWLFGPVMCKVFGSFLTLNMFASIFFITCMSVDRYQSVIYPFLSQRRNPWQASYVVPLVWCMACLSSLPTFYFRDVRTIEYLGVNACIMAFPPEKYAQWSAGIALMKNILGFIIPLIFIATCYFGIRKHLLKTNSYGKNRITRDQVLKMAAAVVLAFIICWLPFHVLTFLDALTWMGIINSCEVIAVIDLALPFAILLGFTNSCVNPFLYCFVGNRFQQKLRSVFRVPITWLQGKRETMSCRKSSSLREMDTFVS
IC50 [1] [nM],inhibition [2] [%],Structure (SMILES),further results
1100,17.1,CCc1nc2c(C)cc(C)nc2n1Cc1ccc(C(c2ccc(C)cc2)C(C(=O)O)C(=O)O)cc1 (stereo not given),–
120,55.4,CCc1nc2c(C)cc(C)nc2n1Cc1ccc(C(Cc2nnn[nH]2)c2ccccc2)cc1 (stereo not given),–
–,22.8,CCc1nc2c(C)cc(C)nc2n1Cc1ccc(/C(=C(/Br)c2nn[nH]n2)c2ccccc2)cc1 (stereo in doubt; 22d) [listing 1 of 2 here],–
–,–,CCCCc1nc(Cl)c(CO)n1Cc1ccc(-c2ccccc2-c2nnn[nH]2)cc1 [LOSARTAN],Inhibition (Rattus norvegicus [3]): 62.5%; Inhibition (Rattus norvegicus [4]): 93.5%; Kb (Oryctolagus cuniculus [5]): 2.95 nM
130,68.7,CCc1nc2c(C)cc(C)nc2n1Cc1ccc(C(CC(=O)O)c2ccccc2F)cc1 (stereo not given),–
440,–,CCc1nc2c(C)cc(C)nc2n1Cc1ccc([C@H](c2ccccc2)[C@@H](C)C(=O)O)cc1 (stereo in doubt; (+)37g),Inhibition (Rattus norvegicus [4]): 19.7%
170,–,CCc1nc2c(C)cc(C)nc2n1Cc1ccc(/C(=C\C(=O)O)c2ccccc2)cc1 (stereo in doubt; 12B) [listing 1 of 2 here],–
180,–,CCc1nc2c(C)cc(C)nc2n1Cc1ccc([C@H](c2ccccc2)[C@@H](C)C(=O)O)cc1 (stereo in doubt; (-)37g),Inhibition (Rattus norvegicus [4]): 22.1%
78,76.2,CCc1nc2c(C)cc(C)nc2n1Cc1ccc(C(c2ccccc2)C(CC)C(=O)O)cc1 (stereo not given),–
130,–,CCc1nc2c(C)cc(C)nc2n1Cc1ccc(/C(=C\c2nn[nH]n2)c2ccccc2)cc1 (stereo in doubt; 22b) [listing 1 of 2 here],–
44,–,CCc1nc2c(C)cc(C)nc2n1Cc1ccc(/C(=C(/Br)c2nn[nH]n2)c2ccccc2)cc1 (stereo in doubt; 22c) [listing 1 of 2 here],–
–,41,CCc1nc2c(C)cc(C)nc2n1Cc1ccc(/C(=C\c2nn[nH]n2)c2ccccc2)cc1 (stereo in doubt; 22a) [listing 1 of 2 here],–
50,–,CCc1nc2c(C)cc(C)nc2n1Cc1ccc([C@H](c2ccccc2)[C@H](CC)C(=O)O)cc1,Inhibition (Rattus norvegicus [3]): 73.3%; Inhibition (Rattus norvegicus [4]): 86.1%; Kb (Oryctolagus cuniculus [5]): 3.89 nM
120,79.9,CCc1nc2c(C)cc(C)nc2n1Cc1ccc(C(c2ccccc2)C(C(=O)O)C(=O)O)cc1 (stereo not given),–
450,61.7,CCc1nc2c(C)cc(C)nc2n1Cc1ccc(C(c2cccc(C)c2)C(C(=O)O)C(=O)O)cc1 (stereo not given),–
–,46,CCc1nc2c(C)cc(C)nc2n1Cc1ccc(C(C)C(C)C(=O)O)cc1 (stereo not given),–
250,–,CCc1nc2c(C)cc(C)nc2n1Cc1ccc([C@H](c2ccccc2)[C@@H](C)C(=O)O)cc1 (stereo in doubt; 37g),Inhibition (Rattus norvegicus [4]): 28.2%; Kb (Oryctolagus cuniculus [5]): 49 nM
200,31.5,CCc1nc2c(C)cc(C)nc2n1Cc1ccc(C(c2ccccc2)C(Cc2ccccc2)C(=O)O)cc1 (stereo not given),–
71,73.7,CCc1nc2c(C)cc(C)nc2n1Cc1ccc(C(c2ccccc2)C(C)C(=O)O)cc1 (stereo not given),–
590,–,CCC[C@@H](C(=O)O)[C@@H](c1ccccc1)c1ccc(Cn2c(CC)nc3c(C)cc(C)nc32)cc1,Inhibition (Rattus norvegicus [4]): 27.8%
–,30.4,CCc1nc2c(C)cc(C)nc2n1Cc1ccc(/C(=C\C(=O)O)c2ccccc2)cc1 (stereo in doubt; 12A) [listing 1 of 2 here],–
4800,–,CCc1nc2c(C)cc(C)nc2n1Cc1ccc([C@H](c2ccccc2)[C@H](C)C(=O)O)o1,Inhibition (Rattus norvegicus [4]): <10%
200,69.1,CCc1nc2c(C)cc(C)nc2n1Cc1ccc(C(CC(=O)O)c2ccccc2Cl)cc1 (stereo not given),–
360,48.2,CCc1nc2c(C)cc(C)nc2n1Cc1ccc(C(CC(=O)NS(=O)(=O)c2ccccc2)c2ccccc2)cc1 (stereo not given),–
–,22.9,CCc1nc2c(C)cc(C)nc2n1Cc1ccc(/C(=C\C(=O)O)c2ccccc2)cc1 (stereo in doubt; 12B) [listing 2 of 2 here],–
170,47.1,CCc1nc2c(C)cc(C)nc2n1Cc1ccc(C(c2ccccc2)C(Br)C(=O)O)cc1 (stereo not given),–

IC50 [1] [nM],inhibition [2] [%],Structure (SMILES),further results
330,45.7,CCc1nc2c(C)cc(C)nc2n1Cc1ccc(C(CC)C(C)C(=O)O)cc1 (stereo not given),–
76,–,CCc1nc2c(C)cc(C)nc2n1Cc1ccc([C@H](c2ccccc2)[C@H](C)C(=O)O)cc1 (stereo in doubt; (-36)g),Inhibition (Rattus norvegicus [4]): 80.3%
–,< 10,CCc1nc2c(C)cc(C)nc2n1Cc1ccc(/C(=C\c2nn[nH]n2)c2ccccc2)cc1 (stereo in doubt; 22b) [listing 2 of 2 here],–
250,40.4,CCc1nc2c(C)cc(C)nc2n1Cc1ccc(C(CC(=O)O)c2ccc(F)cc2F)cc1 (stereo not given),–
600,30.4,CCc1nc2c(C)cc(C)nc2n1Cc1ccc(C(C(C)C)C(C)C(=O)O)cc1 (stereo not given),–
> 10000,< 10,CCc1nc2c(C)cc(C)nc2n1Cc1ccc(C(Cc2ccccc2)C(C(=O)O)C(=O)O)cc1 (stereo not given),–
120,–,CCc1nc2c(C)cc(C)nc2n1Cc1ccc(/C(=C\C(=O)O)c2ccccc2)cc1 (stereo in doubt; 12A) [listing 2 of 2 here],–
–,39.9,CCc1nc2c(C)cc(C)nc2n1Cc1ccc(/C(=C(/Br)c2nn[nH]n2)c2ccccc2)cc1 (stereo in doubt; 22c) [listing 2 of 2 here],–
58,–,CCc1nc2c(C)cc(C)nc2n1Cc1ccc([C@H](c2ccccc2)[C@H](C)C(=O)NS(C)(=O)=O)cc1,Inhibition (Rattus norvegicus [3]): 55.9%; Inhibition (Rattus norvegicus [4]): 71.3%
240,50.7,CCc1nc2c(C)cc(C)nc2n1Cc1ccc(C(c2ccccc2)C(C)(C)C(=O)O)cc1 (stereo not given),–
3700,–,CCc1nc2c(C)cc(C)nc2n1Cc1ccc(C(CC(=O)O)c2ccc(OC)cc2)cc1 (stereo not given),–
210,62,CCc1nc2c(C)cc(C)nc2n1Cc1ccc(C(c2ccccc2C)C(C(=O)O)C(=O)O)cc1 (stereo not given),–
320,69.2,CCc1nc2c(C)cc(C)nc2n1Cc1ccc(C(=C(C(=O)O)C(=O)O)c2ccccc2)cc1,–
–,32.3,CCc1nc2c(C)cc(C)nc2n1Cc1ccc(C(c2ccccc2)C(C(=O)O)C(F)(F)F)cc1 (stereo not given),–
5300,–,CCc1nc2c(C)cc(C)nc2n1Cc1ccc(C(CC(=O)O)c2ccc(-c3ccncc3)cc2)cc1 (stereo not given),–
450,–,CCc1nc2c(C)cc(C)nc2n1Cc1ccc([C@H](c2ccccc2)[C@@H](CC)C(=O)O)cc1,Inhibition (Rattus norvegicus [4]): 44.9%
83,–,CCC[C@H](C(=O)O)[C@@H](c1ccccc1)c1ccc(Cn2c(CC)nc3c(C)cc(C)nc32)cc1,Inhibition (Rattus norvegicus [3]): 64%; Inhibition (Rattus norvegicus [4]): 73.8%
69,–,CCc1nc2c(C)cc(C)nc2n1Cc1ccc([C@H](c2ccccc2)[C@H](C)C(=O)O)cc1 (stereo in doubt; 36g),Inhibition (Rattus norvegicus [3]): 68.5%; Inhibition (Rattus norvegicus [4]): 84.8%; Kb (Oryctolagus cuniculus [6]): 2.04 nM
110,68.5,CCc1nc2c(C)cc(C)nc2n1Cc1ccc(C(CC(=O)O)c2ccccc2)cc1 (stereo not given),–
290,–,CCc1nc2c(C)cc(C)nc2n1Cc1ccc(/C(=C(/Br)c2nn[nH]n2)c2ccccc2)cc1 (stereo in doubt; 22d) [listing 2 of 2 here],–
92,–,CCc1nc2c(C)cc(C)nc2n1Cc1ccc(/C(=C\c2nn[nH]n2)c2ccccc2)cc1 (stereo in doubt; 22a) [listing 2 of 2 here],–
160,68.7,CCc1nc2c(C)cc(C)nc2n1Cc1ccc(C(c2ccccc2)C(C#N)C(=O)O)cc1 (stereo not given),–
94,72.7,CCc1nc2c(C)cc(C)nc2n1Cc1ccc(C(CC(=O)NS(C)(=O)=O)c2ccccc2)cc1 (stereo not given),–
> 10000,–,CCc1nc2c(C)cc(C)nc2n1Cc1ccc(C(CCNS(=O)(=O)C(F)(F)F)c2ccccc2)cc1 (stereo not given),–
71,–,CCc1nc2c(C)cc(C)nc2n1Cc1ccc([C@H](c2ccccc2)[C@H](C)C(=O)O)cc1 (stereo in doubt; (+36)g),Inhibition (Rattus norvegicus [4]): 80.9%
5600,–,CCc1nc2c(C)cc(C)nc2n1Cc1ccc([C@H](c2ccccc2)[C@@H](C)C(=O)O)o1,Inhibition (Rattus norvegicus [4]): <10%
